Measured values taken from the supplement of paper PMC5579334.

Assays:
[1] = tested on: HS-PSS; assay: relative IC50 (inflection point of fitted dose-response curve, CellTox-Green cytotoxicity, 72 h; top asymptote may be below 50%); higher = less potent
Procedure, shortened: (§1)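 For 72 h at 37 °C, MPNST cell lines and primary human Schwann cells were exposed in 384-well plates to five 10-fold compound dilutions. CellTox-Green, added before seeding at a final 1:1000 dilution, gave fluorescence from DNA released by disrupted cells. Signals were scaled to vehicle and positive-control wells, cultures failing plate quality control were left out, and four-parameter logistic fits were applied. Relative IC50 and drug sensitivity score were derived from the fits, with IC50 censored at the top concentration.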

[2] = tested on: HSC1; assay: as above
Procedure, shortened: as §1

[3] = tested on: HSC2; assay: as above
Procedure, shortened: as §1

[4] = tested on: S1507-2; assay: as above
Procedure, shortened: as §1

[5] = tested on: ST8814; assay: as above
Procedure, shortened: as §1

[6] = tested on: STS26T; assay: as above
Procedure, shortened: as §1

[7] = tested on: HS-PSS; assay: relative IC50 (inflection point of fitted dose-response curve, CellTiter-Glo viability, 72 h; top asymptote may be below 50% inhibition); higher = less potent
Procedure, shortened: (§2)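 MPNST cell lines and primary human Schwann cells were seeded at 750–1000 cells per well into 384-well plates preprinted with each compound at five concentrations in 10-fold steps, then incubated 72 h at 37 °C, 5% CO2. CellTiter-Glo ATP luminescence gave viability, scaled between vehicle and positive-control wells, with duplicates averaged where present. Curves were fitted with a four-parameter logistic model. Percent inhibition refers to the top concentration, while drug sensitivity score and relative IC50, censored at the top concentration, come from these fits.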

[8] = tested on: HS-Sch-2; assay: as above
Procedure, shortened: as §2

[9] = tested on: HSC1; assay: as above
Procedure, shortened: as §2

[10] = tested on: HSC2; assay: as above
Procedure, shortened: as §2

[11] = tested on: ST8814; assay: as above
Procedure, shortened: as §2

[12] = tested on: STS26T; assay: as above
Procedure, shortened: as §2

[13] = tested on: YST-1; assay: as above
Procedure, shortened: as §2

[14] = tested on: S462; assay: as above
Procedure, shortened: as §2

[15] = tested on: S1507-2; assay: as above
Procedure, shortened: as §2

| SMILES | relative IC50 [1] [µM] | relative IC50 [2] [µM] | relative IC50 [3] [µM] | relative IC50 [4] [µM] | relative IC50 [5] [µM] | relative IC50 [6] [µM] | relative IC50 [7] [µM] | relative IC50 [8] [µM] | relative IC50 [9] [µM] | relative IC50 [10] [µM] | relative IC50 [11] [µM] | relative IC50 [12] [µM] | relative IC50 [13] [µM] | relative IC50 [14] [µM] | relative IC50 [15] [µM] |
| --- | --- | --- | --- | --- | --- | --- | --- | --- | --- | --- | --- | --- | --- | --- | --- |
| CCc1cncnc1N1CCN(Cc2nc3ccc(C(F)(F)F)cc3[nH]2)CC1 | > 10 | > 10 | > 10 | > 10 | > 10 | > 10 | 2.57 | 3.73 | – | – | – | – | – | – | – |
| Cc1ccc(C(=O)N(CCCN)[C@@H](c2oc3cc(Cl)ccc3c(=O)c2Cc2ccccc2)C(C)C)cc1 | > 0.1 | > 0.1 | > 0.1 | > 0.1 | > 0.1 | > 0.1 | 0.00129 | 0.00166 | > 0.1 | > 0.1 | > 0.1 | > 0.1 | 0.00094 | – | – |
| Cc1sc2c(c1C)C(c1ccc(Cl)cc1)=N[C@H](CC(=O)OC(C)(C)C)c1nnc(C)n1-2 [(-)JQ1] | – | > 10 | > 10 | > 10 | > 10 | > 10 | – | – | – | – | – | – | – | – | – |
| COc1cc2nccc(Oc3ccc(NC(=O)C4(C(=O)Nc5ccc(F)cc5)CC4)cc3)c2cc1OC [Cabozantinib] | > 1 | > 1 | > 1 | > 1 | > 1 | > 1 | – | – | – | > 1 | – | – | > 1 | – | – |
| C[C@@H]1C[C@H]2[C@@H]3CCC4=CC(=O)C=C[C@]4(C)[C@@]3(F)[C@@H](O)C[C@]2(C)[C@@]1(O)C(=O)CO [Dexamethasone] | > 10 | > 10 | > 10 | > 10 | > 10 | > 10 | > 10 | – | > 10 | > 10 | – | > 10 | – | – | – |
| CN1CCN(c2ccc3nc(-c4c(N)c5c(F)cccc5[nH]c4=O)[nH]c3c2)CC1 [Dovitinib] | > 10 | > 10 | > 10 | > 10 | > 10 | > 10 | > 10 | – | – | – | > 10 | – | – | – | – |
| Cn1cc(C2=C(c3cn(C4CCN(Cc5ccccn5)CC4)c4ccccc34)C(=O)NC2=O)c2ccccc21 [Enzastaurin] | > 10 | > 10 | > 10 | > 10 | > 10 | – | – | – | – | 2.91 | – | – | > 10 | – | – |
| C=C1C[C@@H]2[C@H](CC[C@]3(C)C(=O)CC[C@@H]23)[C@@]2(C)C=CC(=O)C=C12 [Exemestane] | > 10 | > 10 | > 10 | > 10 | > 10 | > 10 | 1.76 | – | > 10 | > 10 | > 10 | > 10 | > 10 | – | – |
| Nc1nc(F)nc2c1ncn2[C@@H]1O[C@H](CO)[C@@H](O)[C@@H]1O [Fludarabine] | > 10 | > 10 | > 10 | > 10 | > 10 | > 10 | – | 2.2 | 3.61 | 2.72 | > 10 | 1.65 | 3.48 | – | – |
| O=c1[nH]cc(F)c(=O)[nH]1 [Fluorouracil] | > 10 | > 10 | > 10 | > 10 | > 10 | – | 3.57 | 2.87 | 3.58 | 3.29 | > 10 | 0.907 | 3.28 | – | – |
| O=C(O)CNC(=O)c1c(O)c2ccccc2n(Cc2ccccc2)c1=O [IOX-2] | > 50 | > 50 | > 50 | > 50 | > 50 | > 50 | 10.3 | 12.5 | > 50 | – | 8.42 | – | – | – | – |
| Cc1ccc(F)c(NC(=O)Nc2ccc(-c3cccc4[nH]nc(N)c34)cc2)c1 [Linifanib] | > 1 | > 1 | > 1 | > 1 | > 1 | > 1 | > 1 | > 1 | > 1 | – | – | > 1 | > 1 | – | – |
| Cn1cnc2c(F)c(Nc3ccc(Br)cc3F)c(C(=O)NOCCO)cc21 [MEK-162] | – | > 1 | > 1 | > 1 | > 1 | > 1 | – | – | – | > 1 | – | – | – | 0.124 | – |
| NC1(c2ccc(-c3nc4ccn5c(=O)[nH]nc5c4cc3-c3ccccc3)cc2)CCC1 [MK-2206] | > 1 | > 1 | > 1 | > 1 | > 1 | > 1 | – | – | – | > 1 | > 1 | 0.118 | 0.128 | – | – |
| C[C@H]1C[C@@H]2[C@H]([C@@H](O)C[C@@]3(C)[C@H]2CC[C@]3(O)C(=O)CO)[C@@]2(C)C=CC(=O)C=C12 [Methylprednisolone] | > 10 | > 10 | > 10 | > 10 | > 10 | > 10 | > 10 | – | > 10 | > 10 | – | > 10 | – | – | – |
| C/C(=C\c1csc(C)n1)[C@@H]1C[C@@H]2O[C@]2(C)CCC[C@H](C)[C@H](O)[C@@H](C)C(=O)C(C)(C)[C@@H](O)CC(=O)O1 [Patupilone] | > 1 | 0.0121 | 0.00917 | – | 0.00433 | 0.00103 | 0.00089 | 0.00137 | 0.000929 | 0.00245 | 0.00225 | 0.00103 | 0.00072 | 0.000718 | 0.00352 |
| CCCCCCCCCCCCCCCCCCOP(=O)([O-])OC1CC[N+](C)(C)CC1 [Perifosine aq/PBS] | – | > 2.5 | > 2.5 | > 2.5 | – | 0.963 | – | – | > 2.5 | > 2.5 | – | 0.602 | – | – | – |
| CS(=O)(=O)N1CCN(Cc2cc3nc(-c4cccc5[nH]ncc45)nc(N4CCOCC4)c3s2)CC1 [Pictilisib] | > 10 | > 10 | > 10 | – | 2.28 | > 10 | 1.11 | 1.75 | 1.21 | 1.55 | 0.789 | 0.31 | 0.445 | 1.15 | 0.128 |
| CO[C@H](C(=O)[C@@H](O)[C@@H](C)O)[C@@H]1Cc2cc3cc(O[C@H]4C[C@@H](O[C@H]5C[C@@H](O)[C@H](O)[C@@H](C)O5)[C@@H](O)[C@@H](C)O4)c(C)c(O)c3c(O)c2C(=O)[C@H]1O[C@H]1C[C@@H](O[C@H]2C[C@@H](O[C@H]3C[C@](C)(O)[C@H](O)[C@@H](C)O3)[C@H](O)[C@@H](C)O2)[C@H](O)[C@@H](C)O1 [Plicamycin] | 2.41 | 0.255 | 0.247 | – | > 10 | 0.0333 | 1.38 | 0.865 | 0.0456 | 0.052 | 0.0514 | 0.0475 | 0.564 | 0.0852 | 0.102 |
| CNNCc1ccc(C(=O)NC(C)C)cc1 [Procarbazine] | > 10 | > 10 | > 10 | – | > 10 | > 10 | > 10 | > 10 | > 10 | > 10 | > 10 | > 10 | > 10 | > 10 | > 10 |
| C=CCN(/C=C1/C(=O)O[C@H](COC)[C@@]2(C)C1=C(O)C(=O)C1=C2[C@H](OC(C)=O)C[C@]2(C)C(=O)CC[C@@H]12)CC=C [Sonolisib] | > 10 | > 10 | > 10 | > 10 | > 10 | > 10 | > 10 | > 10 | – | – | – | – | > 10 | – | – |
| CN1CCN(c2nc(C3=C(c4c[nH]c5ccccc45)C(=O)NC3=O)c3ccccc3n2)CC1 [Sotrastaurin] | > 10 | > 10 | > 10 | > 10 | > 10 | > 10 | > 10 | > 10 | > 10 | > 10 | – | > 10 | – | – | – |
| CC(C)n1cnc2c(NCCc3ccc(O)cc3)nc(-c3csc4ccccc34)nc21 [StemRegenin 1] | > 10 | > 10 | > 10 | > 10 | > 10 | – | 3.2 | 3.54 | 3.83 | 2.2 | 2.52 | 3.83 | > 10 | – | – |
| Cc1cc(C(C)Nc2ccccc2)c2nc(N3CCOCC3)cc(=O)n2c1 (centres undefined) [TGX-221] | > 10 | > 10 | > 10 | > 10 | > 10 | – | > 10 | – | – | > 10 | – | 0.875 | 3.37 | – | – |
| C[C@@H](C(=O)O)c1ccc(-c2ccccc2)c(F)c1 [Tarenflurbil] | > 10 | > 10 | > 10 | – | > 10 | > 10 | > 10 | > 10 | > 10 | > 10 | > 10 | > 10 | > 10 | > 10 | > 10 |
| CO[C@H]1C[C@@H]2CC[C@@H](C)[C@@](O)(O2)C(=O)C(=O)N2CCCC[C@H]2C(=O)O[C@H]([C@H](C)C[C@@H]2CC[C@@H](OC(=O)C(C)(CO)CO)[C@H](OC)C2)CC(=O)[C@H](C)/C=C(\C)[C@@H](O)[C@@H](OC)C(=O)[C@H](C)C[C@H](C)/C=C/C=C/C=C/1C [Temsirolimus] | > 0.1 | > 0.1 | > 0.1 | – | > 0.1 | > 0.1 | 0.00113 | 0.00118 | 0.000103 | 0.000227 | 0.000561 | 0.000237 | 0.00138 | 0.00134 | 0.000775 |
| C[C@@H]1CCN(C(=O)CC#N)C[C@@H]1N(C)c1ncnc2[nH]ccc12 [Tofacitinib] | > 5 | > 5 | > 5 | > 5 | > 5 | > 5 | > 5 | > 5 | – | 0.742 | > 5 | – | > 5 | – | – |
| CN(C)CCOc1ccc(/C(=C(/CCCl)c2ccccc2)c2ccccc2)cc1 [Toremifene] | > 10 | > 10 | > 10 | 3.22 | 2.82 | – | 3.43 | 3.46 | – | 2.87 | 4.06 | 3.44 | 3.74 | – | – |
| CCCC(CCC)C(=O)O [Valproic acid aq] | – | > 1000 | > 1000 | > 1000 | – | – | – | – | 269 | 217 | 168 | 254 | – | – | – |
| C[C@]1(c2nc3c(C(N)=O)cccc3[nH]2)CCCN1 [Veliparib] | > 10 | > 10 | > 10 | > 10 | > 10 | > 10 | – | > 10 | – | – | > 10 | > 10 | 1.16 | – | – |
